The record followed here is patent US7297700B2, “Bicycloheteroaryl compounds as P2X7 modulators and uses thereof” (Renovis, Inc., priority 2005, dated 2007).

The inhibition is the change of the read-out against control, counted positive when it falls.

In one experiment the test system is IL-1β release from THP-1 cells. In words: IL-1β Release Assay (Alternate Method), THP-1 cells. Format: cell-based, human. The note with it: Homo sapiens; at 0.3 μM; THP-1 cells; read-out: IL-1β % inhibition. The method, then: THP-1 cells (ATCC Cat #285-IF-100) are plated in 96 well plates at a concentration of 200,000 cells per well and allowed to differentiate in RPMI-1640 media (ATCC Cat #30-2001) containing 10% FBS, 100 IU/mL penicillin, 100 ug/mL streptomycin, 100 ng/mL LPS and 100 ng/mL IFN-γ for 16 hours. Following differentiation, the cells are treated for an additional 2 hours in RPMI-1640 media containing 100 IU/mL penicillin, 100 ug/mL streptomycin and fresh LPS at 100 ng/mL. The cells are then pretreated for 30 minutes with the compound of interest at the appropriate concentration in RPMI media containing 100 IU/mL penicillin, 100 ug/mL streptomycin. Following the pretreatment 2′, 3′-O-(4-benzoylbenzoyl)-adenosine 5′-triphosphate (Sigma Aldrich Cat#B6396) is added to a final concentration of 250 uM and the cells incubated for an additional 45 minutes. 30 uL of cell supernatant is then collected and IL-1β levels determined via ELISA (R&D systems Cat. #HSLB50) according to manufacturer's recommendations using the Tecan Safire plate reader. Background adjusted IL-1β levels of drug treated and non-treated cells are used to calculate the percent inhibition.
Turning to `Cc1ncc2c(c1C(=O)NCC13CC4CC(CC(C4)C1)C3)CCN(Cc1ccccc1)C2` [Compound 368, 7-Benzyl-3-methyl-5,6,7,8-tetrahydro-[2,7]naphthyridine-4carboxylic acid (adamantan-1-ylmethyl)-amide], the inhibition at 0.3 µM is 0 to 25%.

The same experiment, now with this note: at 0.3 μM; THP-1 cells.
Consider `O=C(CC12CC3CC(CC(C3)C1)C2)Nc1ncnc2c1CCN(Cc1ccc(C(F)(F)F)c(F)c1)C2` [Compound 97], for which the IL-1β % inhibition result is recorded as “++ (compound exhibited 25-50% inhibition at 0.3 μM)”.
Still for that read-out and setting: then `O=C(CC1CCCCCC1)Nc1ncnc2c1CCNC2` [Compound 12], with “+ (compound exhibited 0-25% inhibition at 0.3 μM)”; and `CC(c1ccc2c(c1)OCCO2)N1CCc2c(ncnc2NC(=O)CC23CC4CC(CC(C4)C2)C3)C1` (centres unmarked) [Compound 317], with “+ (compound exhibited 0-25% inhibition at 0.3 μM)”; and `O=C(CC12CC3CC(CC(C3)C1)C2)Nc1ncnc2c1CCN(Cc1cccc(C(F)(F)F)c1)C2` [Compound 70], with “+ (compound exhibited 0-25% inhibition at 0.3 μM)”.
Same read-out and setting: next, `O=C(CC12CC3CC(CC(C3)C1)C2)Nc1ncnc2c1CCN(C(=O)c1ccc(F)cc1F)C2` [Compound 277]: “+++ (compound exhibited 50-75% inhibition at 0.3 μM)”; `O=C(CC12CC3CC(CC(C3)C1)C2)Nc1ncnc2c1CCN(C(=O)c1cnn(-c3ccccc3)c1C(F)(F)F)C2` [Compound 286]: “+++ (compound exhibited 50-75% inhibition at 0.3 μM)”.
The same measure, in the same setting: next, `O=C(CC12CC3CC(CC(C3)C1)C2)Nc1ncnc2c1CCN(Cc1cccc(OCCO)c1)C2` [Compound 101]: “++ (compound exhibited 25-50% inhibition at 0.3 μM)”; `O=C(CC12CC3CC(CC(C3)C1)C2)Nc1ncnc2c1CCN(C(=O)c1ccc3ccccc3n1)C2` [Compound 303]: “+++ (compound exhibited 50-75% inhibition at 0.3 μM)”.
In the case of `O=C(CC12CC3CC(CC(C3)C1)C2)Nc1ncnc2c1CCN(Cc1ccc(F)cc1Cl)C2` [Compound 326], the IL-1β % inhibition entry is on record as “++ (compound exhibited 25-50% inhibition at 0.3 μM)”.
Same read-out and setting: then `CC12CC3CC(C)(C1)CC(CC(=O)Nc1ncnc4c1CCN(C(=O)CC1CCCC1)C4)(C3)C2` [Compound 384], with “++ (compound exhibited 25-50% inhibition at 0.3 μM)”; and `O=C(NCC1CCCCC1)c1ncnc2c1CCN(Cc1ccccc1)C2` [Compound 4], with “+ (compound exhibited 0-25% inhibition at 0.3 μM)”.
Same read-out and setting: then `O=C(NCC1CCCCC1)c1ncnc2c1CCN(Cc1cccc(Cl)c1)C2` [Compound 53], with “+ (compound exhibited 0-25% inhibition at 0.3 μM)”; and `CC(CC(=O)N1CCc2c(ncnc2NC(=O)CC23CC4CC(CC(C4)C2)C3)C1)CC(C)(C)C` (centres unmarked) [Compound 235], with “++++ (compound exhibited 75% or greater inhibition at 0.3 μM)”; and `O=C(CC12CC3CC(CC(C3)C1)C2)Nc1ncnc2c1CCN(C(=O)C(c1ccccc1)c1ccccc1)C2` [Compound 236], with “+++ (compound exhibited 50-75% inhibition at 0.3 μM)”.

The same experiment, now with this note: at 0.3 μM; THP-1 cells, BzATP-stimulated.
With `COc1cc(F)c(CN2CCc3c(ncnc3NC(=O)C34CC5CC(CC(C5)C3)C4)C2)cc1OC` [Compound 623], the IL-1β % inhibition entry was “+ (compound exhibited 0-25% inhibition at 0.3 μM)”.
Consider `O=C(Nc1ncnc2c1CCN(S(=O)(=O)c1ccc(C(F)(F)F)cc1)C2)C12CC3CC(CC(C3)C1)C2` [Compound 535], for which the IL-1β % inhibition entry is recorded as “++ (compound exhibited 25-50% inhibition at 0.3 μM)”.
On the same count and under the same terms, next, `O=C(c1cccnc1Oc1ccccc1)N1CCc2c(ncnc2NC(=O)C23CC4CC(CC(C4)C2)C3)C1` [Compound 446]: “++ (compound exhibited 25-50% inhibition at 0.3 μM)”; `COc1ccc(CN2CCc3c(ncnc3NC(=O)C34CC5CC(CC(C5)C3)C4)C2)cc1OC` [Compound 566]: “+ (compound exhibited 0-25% inhibition at 0.3 μM)”; `O=C(Nc1ncnc2c1CCN(S(=O)(=O)Cc1ccc(C(F)(F)F)cc1)C2)C12CC3CC(CC(C3)C1)C2` [Compound 516]: “++ (compound exhibited 25-50% inhibition at 0.3 μM)”.
